Source: US4937266A, “Inhibitory agent of hepatic fibrosis” (priority 1988, dated 1990)

Experiments:
viral hepatitis = conditions: reported in JP-A-No. 58-35118; cited from earlier work
medicinal fatty liver = conditions: reported in JP-B-No. 60-19891; cited from earlier work
prolyl hydroxylase = conditions: rabbit, in vivo
Description: Male Japanese white rabbits weighing 2.5 kg were used. A cholesterol group consisting of 8 rabbits were fed on RC-4 diet (sold by Oriental Kobo Co., Ltd.) containing 0.5% cholesterol for 10 weeks. […] A control group consisting of 3 rabbits were fed on RC-4 diet for the same period.
The rabbits were sacrificed by exsangunation from abdominal aorta under anesthesia with pentobarbital and the liver and kidney were removed. A portion of the each organ was homogenized with 9 times the volume of a 0.01M Tris-hydrochloric acid buffer solution (pH 7.4) containing 10^-5 M EDTA and 10^-4 M DTT in Polytron homogenizer. The prolyl hydroxylase activity was expressed as radioactivity of ^3 H2 O released per milligram of protein when ^3 H-proline labeled unhydroxylated collagen was incubated as a substrate for 30 minutes. […] Incubation was carried out at 30° C. for 30 minutes. 100 μl of a 55% trichloroacetic acid aqueous solution was added thereto to stop the reaction. The ^3 H2 O of the reaction mixture was separated by vacuum distillation of the whole reaction mixture. An aliquot (800 μl) of the distillate was mixed with 10 ml of Aquasol and counted for the radioactivity in a liquid scintillation counter. The protein amount was measured by BIO.RAD Protein Assay Kit using bovine serum albumin (BSA) as a standard.

SMILES: CC(C)(CO)[C@@H](O)C(=O)NCCC(=O)NCCSSCCNC(=O)CCNC(=O)[C@H](O)C(C)(C)CO [Pantethine, D-bis-(N-pantothenyl-β-aminoethyl)-disulfide]
- effect on viral hepatitis (in words) (viral hepatitis): effective
- effect on medicinal fatty liver (in words) (medicinal fatty liver): effective
- Prolyl Hydroxylase Activity, Liver (prolyl hydroxylase): 729.3 ± 45.6 cpm/mg-protein
- prolyl hydroxylase activity in the liver (in words) (prolyl hydroxylase): decreased nearly to the level of the normal group
